Test system: adipose-derived stromal/stem cells (ASC's)
Assay: Viability of adipose-derived stromal/stem cells after cryopreservation, flow cytometry with 7-AAD
Assay type: cell-based
Details: 10% DMSO
Text: ASC's were harvested from adipose tissue obtained by cosmetic liposuction of the abdomen or the inner thighs using the Vibrasat device (Möller Medical GmbH & Co. KG, Fulda, Germany). The ASC's from the stromal vascular fraction were expanded ex vivo in culture medium consisting of Dulbecco's modified Eagle's medium, 1% penicillin-streptomycin, 1% GlutaMAX, and 10% pooled human platelet lysate. Cells were frozen in cryoprotective medium containing 10% DMSO or different concentrations of isomaltooligosaccharide 1 (isom) or hydrogenated isomaltooligosaccharide 1 (h-isom). Samples were frozen using a controlled rate freezer (Kryo 560-16, Planer; start temp. 4° C., −1° C./min drop to 0° C., −2° C./min drop to −45° C. and −5° C./min drop to −100° C.) and moved to −150° C. Samples were thawed in a 37° C. water bath. Flow cytometry was applied for phenotype characterization (positive for CD73, CD90, CD105 and negative for CD14, CD20, CD45 and CD34) and to estimate the viability of ASC's. The fluorescent DNA binding compound 7-Aminoactinomycin D (7-AAD) was used as a live/dead marker. Cells able to exclude 7AAD were assumed to be viable. The results are shown in FIG. 11: Isomaltooligosaccharide 1 (light grey bars), hydrogenated isomaltooligosaccharide 1 (dark grey bars) and DMSO (black bars). Data shown here are from a single experiment measured in doublets. […]

## C[S+](C)[O-] [DMSO, dimethyl sulfoxide]
  Viability of ASCs, result against expectation: lower than expected

From patent US12660812B2, “Cryoprotecting agent, cryoprotecting and cryopreserved compositions, uses thereof, and methods of cryopreservation” (PHARMACOSMOS HOLDING A/S, priority 2012, dated 2026)
